# Data published in article PMC4465063 (Mucosal immunology, 2014).
# Assays:
# purified cathepsin G = settings: purified enzyme, in vitro; cited from earlier work
# purified NE = settings: purified enzyme, in vitro; cited from earlier work
# cathepsin G = settings: cited from earlier work
# plasmin = settings: cited from earlier work
# neutrophils = settings: in vitro; cited from earlier work
# neutrophil elastase (NE) = settings: cited from earlier work
# K. pneumoniae = assay: In vivo neutrophil microbial killing assay; design: species or system Klebsiella pneumoniae strain 43816; settings: thbs1^−/− mice; 10 µg/mouse i.p. 30 min prior to K. pneumoniae i.p.
substance,measurement,setting,value
Ac-DNCPFHYNP-NH2 [DP-9],inhibition of purified cathepsin G,purified cathepsin G,ability to inhibit activity of purified cathepsin G in vitro
Ac-DNCPYVPNA-NH2 [DA-9],inhibition of purified NE,purified NE,without reactive-site sequence similarity or known inhibitory activity
same,inhibition of purified cathepsin G,purified cathepsin G,without reactive-site sequence similarity or known inhibitory activity
Ac-DNCQYVYNV-NH2 [DV-9],inhibition of purified NE,purified NE,inhibitory activity to both purified cathepsin G and NE
same,inhibition of purified cathepsin G,purified cathepsin G,inhibitory activity to both purified cathepsin G and NE
TSP-1: matricellular protein that exists as a trimer of identical ~150–180 kDa subunits tethered together by disulfide bonds,reversible inhibition of CG,cathepsin G; in the absence of calcium,enhanced
same,stoichiometry: mol of cathepsin G bound per 1 mol of TSP-1 trimer,cathepsin G; in the presence of calcium,2.9 ± 0.4 mol
same,inhibition of purified cathepsin G,"cathepsin G; purified enzyme, in vitro",binds and competitively inhibits
same,Kd,"cathepsin G; read-out: site binding constant, TSP-1 trimer, cathepsin G, in the presence of calcium",7 ± 3.5 nM
same,inhibition of plasmin,"plasmin; in vitro, cleavage of fibrinogen",competitive inhibitor
same,predicted stoichiometry with plasmin,plasmin; stoichiometric predictions,one mole of TSP-1 interacting with one mole of plasmin
same,neutrophil motility and chemotaxis,neutrophils,can bind and induce the motility and chemotaxis of neutrophils in vitro
same,reversible inhibition of NE,neutrophil elastase (NE); in the absence of calcium,enhanced
same,stoichiometry: mol of NE bound per 1 mol of TSP-1 trimer,neutrophil elastase (NE); in the presence of calcium,2.7 ± 0.3 mol
same,inhibition of purified NE,"neutrophil elastase (NE); purified enzyme, in vitro",binds and competitively inhibits
same,Kd,"neutrophil elastase (NE); read-out: site binding constant, TSP-1 trimer, NE, in the presence of calcium",57 ± 13 nM
rTSP-1: recombinant TSP-1,bacterial killing function of thbs1^−/− neutrophils,K. pneumoniae,eliminated the enhanced bacterial killing function of thbs1^−/− neutrophils near to the level of WT neutrophils
